Laboratory results reported in patent US11255806B2, “Interdigitated electrodes for in vitro analysis of cells” (UNIVERSITY OF CENTRAL FLORIDA RESEARCH FOUNDATION, INC., priority 2017, dated 2022).
Values joined by “and” are separate entries in the source; they are usually repeats but may differ in a detail not shown here. Identical values can stand only once.

Tested on: iPSC cardiomyocytes (iCell Cardiomyocytes^2)
Test: Model drug (norepinephrine) cardiotoxicity experiment: impedance / cell index on nIDEs with cultured iPSC cardiomyocytes
Type: cell-based, Human

## NC[C@H](O)c1ccc(O)c(O)c1 [norepinephrine]
0 μM to 250 μM, N=6, FIG. 24
  change of CI and % CI with norepinephrine concentration: both decrease as the concentration of norepinephrine increases
At 256 μm norepinephrine, mean of N=7, 86.91% at 0 μM, FIG. 24
  percent cell index (% CI): 48.88%
At 256 μm norepinephrine, mean of N=7, CI=2.34 at 0 μM, FIG. 23
  cell index (CI): 1.13
Summary statement, concentration not given, decrease from 2.34 / 2.3
  cellular index (CI) after increased concentrations of norepinephrine: 1.13 and 1
